The source of these data is patent US7560279B2, “Method of proliferating human hepatocytes and method for obtaining human hepatocytes” (Hiroshima Industrial Promotion Organization, priority 2002, dated 2009).

In data set [1] the test system is human complement produced by human hepatocytes. Nature of the data set: Complement inhibitor given to human-hepatocyte chimeric mice: survival. Type of data set: in vivo, mouse. The settings on record: 200 μl of 2 mg/ml, every 2 days to twice a day; human albumin in blood exceeded 3 mg/ml. How it is done:
Also, human hepatocytes in the mouse liver tissue were stained immunologically using an anti-human complement C3 antibody, and presence of a complement C3 in human hepatocytes was confirmed. Therefore, 200 μl of a complement inhibitor (Futhan®) with concentration of 2 mg/ml was administered into the mouse with increased human albumin concentration. Administration frequency was started from once per 2 days. Change in body weight was checked every day, and administration frequency or dose was increased when decrease in body weight was observed (FIG. 3). As the results, the mice with human albumin concentration in blood over 2 mg/ml received the complement inhibitor (Futhan®) every 2 days, and those over 4 mg/ml received every day, and further, those over 6 mg/ml received twice a day (FIG. 3).

For the next data set, the system named is human complement (hC3a). Nature of the data set: Human complement (hC3a) in blood of chimeric mice by ELISA. Type of data set: in vivo, mouse. The note with it: administered vs non-administered chimeric mice. As to the method:
Further, concentration of the human complement (hC3a) in blood of chimeric mice administered or non-administered with the complement inhibitor (Futhan®) was measured by ELISA method. In consequence, it was confirmed that hC3a concentration was lower in chimeric mice administered with the complement inhibitor compared with non-administered mice (FIG. 4).
A general note: In an ELISA, binding on a coated surface is turned into a signal by an enzyme label.

In another data set the test system is T1, CYP2C9.
T1 construct: to check activity of CYP2C9 in the microsomal fraction sampled from a mouse; from tissue; host or cells: liver microsomal fraction of human-hepatocyte-transplanted chimeric mice (uPA/SCID); donor (human) microsome as comparison
T1 sequence (P11712 whole entry): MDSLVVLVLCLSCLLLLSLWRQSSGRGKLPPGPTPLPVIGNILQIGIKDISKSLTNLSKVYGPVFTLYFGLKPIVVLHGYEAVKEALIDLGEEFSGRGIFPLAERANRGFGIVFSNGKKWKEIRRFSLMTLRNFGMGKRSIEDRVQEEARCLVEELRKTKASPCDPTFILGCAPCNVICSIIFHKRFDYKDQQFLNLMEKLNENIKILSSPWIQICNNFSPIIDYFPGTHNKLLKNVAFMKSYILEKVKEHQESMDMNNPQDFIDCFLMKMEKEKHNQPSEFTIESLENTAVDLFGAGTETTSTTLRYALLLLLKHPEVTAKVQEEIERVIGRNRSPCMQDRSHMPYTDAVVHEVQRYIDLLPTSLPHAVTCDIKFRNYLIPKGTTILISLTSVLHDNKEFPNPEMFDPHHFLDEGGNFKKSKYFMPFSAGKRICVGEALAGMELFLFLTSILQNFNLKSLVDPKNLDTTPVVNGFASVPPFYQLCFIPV
Nature of the data set: Diclofenac 4-hydroxylation activity in mouse liver microsomes. It is filed as in vivo. The note with it: liver microsomes of uPA(-/-)/SCID mouse. As to the method:
Further, to check activity of CYP2C9 in the microsomal fraction sampled from a mouse, diclofenac 4-hydroxylation activity was measured by adding diclofenac to the microsome. In consequence, diclofenac 4-hydroxylation activity was little detected in the uPA(−/−)/SCID mouse, and induction of activity by administration of a complement inhibitor was not observed also. […] In a chimeric mouse with 89% of replacement ratio, diclofenac 4-hydroxylation activity was confirmed higher than that of donor (human) microsome (FIG. 9).

The test system of data set [2] is normalized mouse hepatocytes. Nature of the data set: Growth inhibition of normalized mouse hepatocytes in uPA-Tg/SCID mice. The settings on record: 30 or 60 mg/kg intraperitoneally. It is filed as in vivo. How it is done:
Retrorsine was inoculated intraperitoneally in the amount of 30 or 60 mg/kg into a uPA-Tg(+/−)/SCID mouse and a uPA-Tg(+/+)/SCID mouse. As the result, number of colonies of normalized hepatocytes caused by deletion of introduced uPA gene (uPA-Tg(−/−)/SCID) was reduced in the uPA-Tg(+/−)/SCID mouse (FIG. 12).

A further data set deals with human hepatocytes. Briefly: Human albumin in blood of chimeric mice (ELISA). It is filed as in vivo. The note with it: 60 mg/kg intraperitoneally before transplantation; compared with chimeric uPA-Tg(+/+)/SCID mouse. As to the method: From 1 week after transplantation of human hepatocytes, 10 μl blood samples were taken from the tail of a mouse once or twice per a week, and concentration of human albumin was measured using Quantitative ELISA immunoassay (Bethyl Laboratories Inc.).
Then, the uPA-Tg(+/−)/SCID and the uPA-Tg(+/+)/SCID mice, which were inoculated with 60 mg/kg of retrorsine intraperitoneally, were transplanted with human hepatocytes similarly as in Example 1 to prepare chimeric mice.
As to one chimeric mouse prepared in Example 1, at 100 days after transplantation of human hepatocytes, an anti-mouse Fas antibody which leads mouse hepatocytes to apoptosis by reaction with a Fas antigen thereof was inoculated (0.2 μg/g body weight) into the abdominal cavity of said chimeric mouse twice at the interval of 1 week.

As for `N=C(N)c1ccc2cc(OC(=O)c3ccc(N=C(N)N)cc3)ccc2c1` [Futhan, nafamostat mesilate], the “survival of chimeric mouse” value in data set [1] was “could live for long period”. In the data set on human complement (hC3a), the “hC3a concentration in blood” value is on record as “lower”. Further, the “induction of diclofenac 4-hydroxylation activity” value in the data set with CYP2C9 is reported as “not observed”.

For retrorsine, in data set [2], the “number of colonies of normalized hepatocytes caused by deletion of introduced uPA gene” value was “reduced”. Also, the “human albumin concentration in blood of chimeric uPA-Tg(+/-)/SCID mouse” value in the data set with human hepatocytes was “increased to the same level”.
